The values that follow come from ChEMBL document CHEMBL3751785, “Development and structural analysis of adenosine site binding tankyrase inhibitors” (Bioorg Med Chem Lett, 2016).

Assay [1] has as its target Poly [ADP-ribose] polymerase 2 (Homo sapiens, UniProt Q9UGN5). The assay can be described thus: Inhibition of human ARTD2 by fluorescence analysis.
Assay [2] addresses T1, Protein mono-ADP-ribosyltransferase PARP15 (Homo sapiens, UniProt Q460N3).
T1 sequence (Q460N3 whole entry): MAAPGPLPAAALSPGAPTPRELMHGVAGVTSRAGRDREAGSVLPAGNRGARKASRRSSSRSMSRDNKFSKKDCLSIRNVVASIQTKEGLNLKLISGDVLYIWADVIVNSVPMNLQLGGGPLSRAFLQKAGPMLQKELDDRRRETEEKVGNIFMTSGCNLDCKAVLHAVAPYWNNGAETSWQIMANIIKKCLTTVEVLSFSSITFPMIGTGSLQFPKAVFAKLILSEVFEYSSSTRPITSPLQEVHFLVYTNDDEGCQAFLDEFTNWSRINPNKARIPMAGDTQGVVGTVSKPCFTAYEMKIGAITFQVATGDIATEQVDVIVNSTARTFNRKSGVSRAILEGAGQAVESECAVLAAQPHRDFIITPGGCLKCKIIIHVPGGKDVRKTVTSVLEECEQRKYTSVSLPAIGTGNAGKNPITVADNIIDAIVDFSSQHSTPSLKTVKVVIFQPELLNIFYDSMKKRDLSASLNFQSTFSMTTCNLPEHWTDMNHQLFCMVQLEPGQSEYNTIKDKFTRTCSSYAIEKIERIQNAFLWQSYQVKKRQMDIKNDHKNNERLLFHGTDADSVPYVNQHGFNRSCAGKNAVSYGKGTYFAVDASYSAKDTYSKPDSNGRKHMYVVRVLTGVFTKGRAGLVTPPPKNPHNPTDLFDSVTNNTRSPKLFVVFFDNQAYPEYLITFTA
Kind of assay: Inhibition of human ARTD7 by fluorescence analysis.

In assay [3] the target is Protein mono-ADP-ribosyltransferase PARP14 (Homo sapiens, UniProt Q460N5). The assay can be described thus: Inhibition of human ARTD8 by fluorescence analysis.
Sequence of Protein mono-ADP-ribosyltransferase PARP14 (Q460N5 whole entry): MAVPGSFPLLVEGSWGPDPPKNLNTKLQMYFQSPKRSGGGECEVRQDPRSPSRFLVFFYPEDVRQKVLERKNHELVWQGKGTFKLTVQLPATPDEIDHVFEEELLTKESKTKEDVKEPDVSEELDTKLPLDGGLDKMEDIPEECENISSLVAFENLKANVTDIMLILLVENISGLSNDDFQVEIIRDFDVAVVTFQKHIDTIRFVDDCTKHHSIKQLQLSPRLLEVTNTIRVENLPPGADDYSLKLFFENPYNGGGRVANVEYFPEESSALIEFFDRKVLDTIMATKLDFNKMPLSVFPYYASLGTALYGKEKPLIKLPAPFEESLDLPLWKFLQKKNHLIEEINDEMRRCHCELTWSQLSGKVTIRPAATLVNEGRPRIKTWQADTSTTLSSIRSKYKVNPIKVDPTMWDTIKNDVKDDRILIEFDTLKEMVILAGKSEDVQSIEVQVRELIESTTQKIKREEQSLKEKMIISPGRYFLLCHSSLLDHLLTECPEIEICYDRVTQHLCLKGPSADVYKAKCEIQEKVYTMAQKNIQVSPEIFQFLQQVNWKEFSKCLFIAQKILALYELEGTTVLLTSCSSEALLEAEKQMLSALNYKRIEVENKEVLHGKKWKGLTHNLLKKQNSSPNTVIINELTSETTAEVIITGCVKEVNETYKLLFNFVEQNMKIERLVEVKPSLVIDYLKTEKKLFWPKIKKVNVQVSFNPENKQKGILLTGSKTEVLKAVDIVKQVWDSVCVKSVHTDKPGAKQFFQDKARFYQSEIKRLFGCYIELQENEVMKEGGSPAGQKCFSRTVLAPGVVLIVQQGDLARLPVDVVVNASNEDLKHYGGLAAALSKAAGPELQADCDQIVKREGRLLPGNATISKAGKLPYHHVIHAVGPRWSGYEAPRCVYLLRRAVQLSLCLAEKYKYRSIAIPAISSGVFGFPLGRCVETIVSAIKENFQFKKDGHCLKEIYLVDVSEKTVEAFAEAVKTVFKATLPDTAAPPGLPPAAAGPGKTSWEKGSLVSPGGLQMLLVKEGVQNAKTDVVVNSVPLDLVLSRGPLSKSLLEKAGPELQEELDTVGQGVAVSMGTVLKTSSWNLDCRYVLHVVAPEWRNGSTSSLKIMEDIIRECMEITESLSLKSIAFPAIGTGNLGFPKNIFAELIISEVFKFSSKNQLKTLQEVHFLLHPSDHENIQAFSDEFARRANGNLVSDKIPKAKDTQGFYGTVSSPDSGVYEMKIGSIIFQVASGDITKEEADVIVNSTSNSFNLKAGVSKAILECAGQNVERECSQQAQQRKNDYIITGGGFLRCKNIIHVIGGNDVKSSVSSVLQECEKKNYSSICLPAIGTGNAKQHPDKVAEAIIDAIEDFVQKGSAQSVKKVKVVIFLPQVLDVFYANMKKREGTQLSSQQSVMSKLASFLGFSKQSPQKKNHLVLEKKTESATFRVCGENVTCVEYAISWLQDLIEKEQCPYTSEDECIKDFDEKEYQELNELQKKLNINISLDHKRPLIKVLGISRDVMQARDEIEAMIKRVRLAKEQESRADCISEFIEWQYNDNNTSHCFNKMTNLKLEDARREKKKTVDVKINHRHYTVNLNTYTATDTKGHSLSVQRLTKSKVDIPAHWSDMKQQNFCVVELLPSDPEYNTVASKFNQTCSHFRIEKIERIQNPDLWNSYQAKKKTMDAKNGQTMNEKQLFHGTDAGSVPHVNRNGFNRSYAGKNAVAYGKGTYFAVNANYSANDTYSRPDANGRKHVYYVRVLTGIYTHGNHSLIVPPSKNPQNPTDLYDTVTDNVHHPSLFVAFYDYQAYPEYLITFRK
The target in assay [4] is T2, Protein mono-ADP-ribosyltransferase PARP12 (Homo sapiens, UniProt Q9H0J9).
T2 sequence (Q9H0J9 whole entry): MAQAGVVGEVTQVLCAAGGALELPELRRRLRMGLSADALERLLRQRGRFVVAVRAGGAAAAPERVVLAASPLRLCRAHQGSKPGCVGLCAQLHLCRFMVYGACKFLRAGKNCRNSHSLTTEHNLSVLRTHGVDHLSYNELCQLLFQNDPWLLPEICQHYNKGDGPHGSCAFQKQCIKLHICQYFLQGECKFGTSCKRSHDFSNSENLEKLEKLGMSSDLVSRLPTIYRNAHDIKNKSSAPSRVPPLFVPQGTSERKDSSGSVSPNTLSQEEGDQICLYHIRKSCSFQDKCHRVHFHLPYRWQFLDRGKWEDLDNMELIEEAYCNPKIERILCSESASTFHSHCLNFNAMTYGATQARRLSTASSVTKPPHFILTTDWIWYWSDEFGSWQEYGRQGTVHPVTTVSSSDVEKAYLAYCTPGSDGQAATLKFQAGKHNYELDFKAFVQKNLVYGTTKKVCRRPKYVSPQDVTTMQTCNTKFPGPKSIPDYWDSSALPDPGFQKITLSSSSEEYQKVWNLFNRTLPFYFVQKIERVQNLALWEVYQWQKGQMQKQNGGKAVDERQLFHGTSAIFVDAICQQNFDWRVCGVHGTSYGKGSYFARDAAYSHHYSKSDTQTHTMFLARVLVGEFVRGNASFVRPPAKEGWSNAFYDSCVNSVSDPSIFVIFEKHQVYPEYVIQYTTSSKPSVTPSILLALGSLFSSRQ
The assay can be described thus: Inhibition of human ARTD12 by fluorescence analysis.

Sequence of Poly [ADP-ribose] polymerase 2 (Q9UGN5 whole entry): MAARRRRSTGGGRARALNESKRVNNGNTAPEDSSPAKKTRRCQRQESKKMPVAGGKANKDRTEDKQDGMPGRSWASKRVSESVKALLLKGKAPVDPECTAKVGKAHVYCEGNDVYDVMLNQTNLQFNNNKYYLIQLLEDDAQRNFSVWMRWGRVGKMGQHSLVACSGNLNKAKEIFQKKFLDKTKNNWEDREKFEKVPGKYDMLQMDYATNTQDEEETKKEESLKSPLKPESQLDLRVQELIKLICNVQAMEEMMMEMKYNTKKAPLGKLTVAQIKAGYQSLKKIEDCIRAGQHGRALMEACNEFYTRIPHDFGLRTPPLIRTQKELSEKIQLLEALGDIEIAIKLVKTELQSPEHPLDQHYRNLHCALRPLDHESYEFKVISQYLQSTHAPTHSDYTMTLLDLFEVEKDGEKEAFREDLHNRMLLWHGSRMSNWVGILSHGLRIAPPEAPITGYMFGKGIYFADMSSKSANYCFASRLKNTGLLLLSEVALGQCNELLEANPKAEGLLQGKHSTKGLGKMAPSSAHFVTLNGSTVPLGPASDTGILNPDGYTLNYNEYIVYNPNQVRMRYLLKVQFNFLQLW

As a reminder, the IC50 is the concentration needed to halve the response being measured. Read a low IC50 as higher potency. As to `COc1ccc(C2(CNC(=O)c3ccc(NC(=O)c4ccco4)cc3Cl)CCOCC2)cc1`, the IC50 is above 100 µM in assay [1], above 10 µM in assay [2], above 10 µM in assay [3] and above 10 µM in assay [4].
